Measurements published in US20220267331A1, “DOPAMINE-B-HYDROXYLASE INHIBITORS” (BIAL - PORTELA & CA, S.A., priority 2019, published 2022).
Where a name gives a salt, the structure may show the parent alone.

Biological target: T1, DβH (Homo sapiens, UniProt P09172)
T1 construct: 125 μL of plasma (or saline for blank reaction or standard curve); tissue Instituto Português do Sangue Transplantação, Centro Sangue Transplantação, Porto, Portugal; host or cells: human plasma from healthy donors
T1 sequence (P09172 40-617 limits assumed): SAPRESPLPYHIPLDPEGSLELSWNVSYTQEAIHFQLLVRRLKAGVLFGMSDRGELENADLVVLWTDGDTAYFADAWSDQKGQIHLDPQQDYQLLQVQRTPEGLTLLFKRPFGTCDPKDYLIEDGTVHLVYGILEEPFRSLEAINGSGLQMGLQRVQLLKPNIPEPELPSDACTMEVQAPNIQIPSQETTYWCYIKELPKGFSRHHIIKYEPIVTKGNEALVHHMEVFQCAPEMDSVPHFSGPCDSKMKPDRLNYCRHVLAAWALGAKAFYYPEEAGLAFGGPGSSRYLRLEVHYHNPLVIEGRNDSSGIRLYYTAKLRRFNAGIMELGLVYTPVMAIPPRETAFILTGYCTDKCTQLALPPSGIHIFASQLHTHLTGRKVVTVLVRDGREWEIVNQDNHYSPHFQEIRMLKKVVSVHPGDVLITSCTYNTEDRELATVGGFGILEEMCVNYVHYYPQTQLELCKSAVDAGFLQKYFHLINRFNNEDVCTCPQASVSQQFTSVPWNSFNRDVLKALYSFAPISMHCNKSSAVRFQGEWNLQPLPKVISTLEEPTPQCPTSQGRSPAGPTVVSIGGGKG
Test: Dopamine-β-hydroxylase inhibition assay in human plasma
Type: biochemical
Settings: for remaining activity at 0.01 µM / DβH (0.01 μM): DβH activity in human plasma at 0.01 μM inhibitor; for remaining activity at 0.1 µM / DβH (0.1 μM): DβH activity in human plasma at 0.1 μM inhibitor; for IC50: human plasma, curve fitting of 6 concentrations (100 nM to 0.3 nM)
Description: The ability of a compound to inhibit DβH activity may be assessed in human plasma using the following assay.
Dopamine beta hydroxylase activity in human plasma was measured by the method of Nagatsu and Udenfriend (Nagatsu, T. and Udenfriend, S. “Photometric assay of dopamine-p-hydroxylase activity in human blood.” Clin. Chem. 18(9) 980-983, 1972) with minor modifications. Catalase, N-ethylmaleimide, tyramine, disodium fumarate, pargyline, sodium acetate, ascorbic acid, copper sulfate and octopamine were obtained from Sigma Chemical Co., St. Louis, Mo. 63178. Human plasma samples were obtained from healthy donors (Instituto Português do Sangue Transplantação, Centro Sangue Transplantação, Porto, Portugal). From date of collection, plasma was stored at −80° C. until use. Test compounds were initially prepared in dimethyl sulfoxide at a concentration of 10 mM and diluted in dimethyl sulfoxide to the required concentrations. Test compounds were further diluted in ultrapure water to a concentration 20-fold to that of the final concentration to be tested. Final concentrations of test compounds were 10 and 100 nM. The various reagents used to make up the incubation buffer were premixed and consisted of the following components: sodium acetate buffer (1 M, pH 5.0, 18 mL), sodium fumarate (0.2 M, 4.5 mL), ascorbic acid (0.2 M, 4.5 ml, freshly prepared), pargyline (20 mM, freshly prepared, 4.5 mL), N-ethylmaleimide (0.2 M, 4.5 mL), catalase (10 000 U/mL, 9 mL), copper sulfate (20 μM, 4.5 mL) and 4.5 ultrapure water. The standard incubation mixture (total volume, 950 μL) contained: 50 μL of compound or vehicle (dimethyl sulfoxide 2%); 700 μL of incubation buffer; 125 μL of plasma (or saline for blank reaction or standard curve); 75 μL of saline. The reaction mixture was placed in water bath, shaking at 37° C. and pre-incubated for 10 minutes. Tyramine (0.5 M) was added and incubation proceeded for 45 minutes. The reaction contents were exposed to air. A sample of enzyme preparation (with 125 μL of plasma) that had been added perchloric acid 2 M at the end of the pre-incubation period was used as blank. A blank for each of the tested compounds was used. For octopamine standard curve, perchloric acid 2 M was replaced by increasing concentrations of octopamine prepared in perchloric acid 2 M (0.5, 1, 2.5, 5, 7.5, 10, 15, 20 μg/mL, final concentration). The incubation was stopped by adding 200 μL of 2 M molar perchloric acid, and the mixture was centrifuged at 9000 g for 5 min. The supernatant fluid (800 μL) was transferred to a column (SPE cartridge ISOLUTE SCX-3, 100 mg) and centrifuged at 150 g for 2 min. The column was washed two more times with 0.5 ml of ultrapure water by centrifuging at 150 g for 2 min. The adsorbed octopamine was eluted twice with 0.3 mL of 4 M ammonium hydroxide by centrifuging at 150 g for 2 min. Octopamine in the eluate was then converted to p-hydroxybenzaldehyde by adding 200 μL of sodium periodate (2%) and incubating for 6 min. Excess periodate was than reduced by adding 200 μL of sodium metabisulfite (10%). Absorbance was measured at […] in a 96-well plate by use of a SpectraMAX plus 384 (Molecular Devices) with software SOFTmax® PRO Software 5.3 spectrophotometer. Absorbance was linear with octopamine concentration from 0.5 to 20 μg/mL. Dopamine beta hydroxylase activity is determined as nmol of octopamine formed/mL of plasma/hour and effect of compounds is presented as % control. Results are reported in the table below as activity in % of control at the inhibitor concentration tested.
IC50 values of selected compounds were calculated based on curve fitting of results of 6 different compound concentrations (100 nM to 0.3 nM). IC50 data are reported in nM concentration.

Row | remaining activity at 0.01 µM | remaining activity at 0.1 µM | IC50 | DβH (0.01 μM) | DβH (0.1 μM) | Compound
1 | 41.8% | 3.9% | 9.9 nM | – | – | Fc1ccc(Cl)cc1[C@]12C[C@H]1c1c(CCCNC3CCOCC3)[nH]c(=S)n1C2 [Example 17, (5aS,6aR)-5a-(5-chloro-2-fluorophenyl)-1-(3-((tetrahydro-2H-pyran-4-yl)amino)propyl)-5,5a,6,6a-tetrahydrocyclopropa[3,4]pyrrolo[1,2-c]imidazole-3(2H)-thione]
2 | 57.3% | 15.5% | 9.5 nM | – | – | Fc1ccc(F)c([C@H]2Cc3c(CCCNCC4CCOCC4)[nH]c(=S)n3C2)c1F [Example 3, (R)-1-(3-(((tetrahydro-2H-pyran-4-yl)methyl)amino)propyl)-6-(2,3,6-trifluorophenyl)-2,5,6,7-tetrahydro-3H-pyrrolo[1,2-c]imidazole-3-thione]
3 | 23.5% | 3.5% | 4 nM | – | – | Fc1ccc(Cl)c(F)c1[C@]12C[C@H]1c1c(CCCN[C@H]3CCCOC3)[nH]c(=S)n1C2 [Example 22, (5aS,6aR)-5a-(3-chloro-2,6-difluorophenyl)-1-(3-(((S)-tetrahydro-2H-pyran-3-yl)amino)propyl)-5,5a,6,6a-tetrahydrocyclopropa[3,4]pyrrolo[1,2-c]imidazole-3(2H)-thione]
4 | 63.6% | 10.4% | 11.6 nM | – | – | Fc1ccc(F)c([C@H]2Cc3c(CCCN4CCOCC4)[nH]c(=S)n3C2)c1F [Example 6, (R)-1-(3-morpholinopropyl)-6-(2,3,6-trifluorophenyl)-2,5,6,7-tetrahydro-3H-pyrrolo[1,2-c]imidazole-3-thione]
5 | 42.5% | 5.4% | 12.7 nM | – | – | Fc1ccc(F)c([C@H]2Cc3c(CCCNC4CCOCC4)[nH]c(=S)n3C2)c1F [Example 5, (R)-1-(3-((tetrahydro-2H-pyran-4-yl)amino)propyl)-6-(2,3,6-trifluorophenyl)-2,5,6,7-tetrahydro-3H-pyrrolo[1,2-c]imidazole-3-thione]
6 | – | 52.8% | – | 113.4 % of Control | – | CN(C)CCCc1[nH]c(=S)n2c1C[C@H](c1c(F)ccc(F)c1F)C2 [Example 8, (R)-1-(3-(dimethylamino)propyl)-6-(2,3,6-trifluorophenyl)-2,5,6,7-tetrahydro-3H-pyrrolo[1,2-c]imidazole-3-thione]
7 | 48.1% | 12.2% | 19.1 nM | – | – | Fc1ccc(F)c([C@H]2Cc3c(CCCN[C@H]4CCCOC4)[nH]c(=S)n3C2)c1F [Example 9, (R)-1-(3-(((S)-tetrahydro-2H-pyran-3-yl)amino)propyl)-6-(2,3,6-trifluorophenyl)-2,5,6,7-tetrahydro-3H-pyrrolo[1,2-c]imidazole-3-thione]
8 | – | – | 12.7 nM | 64.6 % of Control | 12.9 % of Control | Cl.Fc1ccc(F)c([C@H]2Cc3c(CCCN4CCOCC4)[nH]c(=S)n3C2)c1F [Example 1, (R)-1-(3-morpholinopropyl)-6-(2,3,6-trifluorophenyl)-2,5,6,7-tetrahydro-3H-pyrrolo[1,2-c]imidazole-3-thione hydrochloride]
9 | 42.5% | – | 8.3 nM | – | 3.0 % of Control | Cl.Fc1ccc(F)c([C@H]2Cc3c(CCCN4CC[C@@H](F)C4)[nH]c(=S)n3C2)c1F [Example 7, (R)-1-(3-((R)-3-fluoropyrrolidin-1-yl)propyl)-6-(2,3,6-trifluorophenyl)-2,5,6,7-tetrahydro-3H-pyrrolo[1,2-c]imidazole-3-thione hydrochloride]
10 | – | – | – | 86.2 % of Control | 45.8 % of Control | CN(C)CCCc1[nH]c(=S)n2c1C[C@H](c1c(F)ccc(F)c1F)C2.Cl [Example 10, (R)-1-(3-(dimethylamino)propyl)-6-(2,3,6-trifluorophenyl)-2,5,6,7-tetrahydro-3H-pyrrolo[1,2-c]imidazole-3-thione hydrochloride]
11 | 69.9% | 29.3% | 22.2 nM | – | – | CN(CCCc1[nH]c(=S)n2c1C[C@H](c1c(F)ccc(F)c1F)C2)C1CCOC1 (stereo partly drawn) [Example 13, (6R)-1-(3-(methyl(tetrahydrofuran-3-yl)amino)propyl)-6-(2,3,6-trifluorophenyl)-2,5,6,7-tetrahydro-3H-pyrrolo[1,2-c]imidazole-3-thione hydrochloride]
12 | 17% | 1% | 3 nM | – | – | Fc1ccc(Cl)c(F)c1[C@]12C[C@H]1c1c(CCCN3CCCC3)[nH]c(=S)n1C2 [Example 19, (5aS,6aR)-5a-(3-chloro-2,6-difluorophenyl)-1-(3-(pyrrolidin-1-yl)propyl)-5,5a,6,6a-tetrahydrocyclopropa[3,4]pyrrolo[1,2-c]imidazole-3(2H)-thione]
13 | 98.4% | 66.6% | – | – | – | NCCCc1[nH]c(=S)n2c1C[C@H](c1c(F)ccc(F)c1F)C2 [Example 2, (R)-1-(3-aminopropyl)-6-(2,3,6-trifluorophenyl)-2,5,6,7-tetrahydro-3H-pyrrolo[1,2-c]imidazole-3-thione]
14 | 20.1% | 1% | 4 nM | – | – | Fc1ccc(Cl)c(F)c1[C@]12C[C@H]1c1c(CCCNC3CCOCC3)[nH]c(=S)n1C2 [Example 18, (5aS,6aR)-5a-(3-chloro-2,6-difluorophenyl)-1-(3-((tetrahydro-2H-pyran-4-yl)amino)propyl)-5,5a,6,6a-tetrahydrocyclopropa[3,4]pyrrolo[1,2-c]imidazole-3(2H)-thione]
15 | 53.4% | 9.1% | 9.8 nM | – | – | Fc1ccc(Cl)cc1[C@]12C[C@H]1c1c(CCCN3CCCC3)[nH]c(=S)n1C2 [Example 20, (5aS,6aR)-5a-(5-chloro-2-fluorophenyl)-1-(3-(pyrrolidin-1-yl)propyl)-5,5a,6,6a-tetrahydrocyclopropa[3,4]pyrrolo[1,2-c]imidazole-3(2H)-thione]
16 | 71.2% | 18.9% | 20.9 nM | – | – | CN(CCCc1[nH]c(=S)n2c1C[C@H](c1c(F)ccc(F)c1F)C2)C1CCOCC1 [Example 12, (R)-1-(3-(methyl(tetrahydro-2H-pyran-4-yl)amino)propyl)-6-(2,3,6-trifluorophenyl)-2,5,6,7-tetrahydro-3H-pyrrolo[1,2-c]imidazole-3-thione]
